Test results taken from article PMC5697638, “Identification of a Potent Phosphoinositide 3‐Kinase Pan Inhibitor Displaying a Strategic Carboxylic Acid Group and Development of Its Prodrugs” (Chemmedchem, 2017).
Where two headings read alike, the source gives them in different places.

How the values were obtained:
Type in all cases: biochemical
[1] = target: T1, human PI3Kα (PIK3CA/PIK3R1) (Homo sapiens, UniProt P42336); experiment: lipid kinase assay (ADP-Glo), PI3Kα; details: for inhibition at 1 µM: determined at 1 μM, at least triplicate, read-out: Inhibitory activity, PI3K isoform α; for IC50: mean of at least three determinations, 95 % confidence intervals
T1 construct: purchased ProQinase, Germany 1161‐1165‐1
Protocol: (§1) In vitro selection, lipid kinase assay: To determine the inhibitory activity of the new molecular entities on PI3K enzyme, a lipid kinase assay was performed: recombinant proteins (30 ng), human PI3Kα (PIK3CA/PIK3R1, #1161‐1165‐1 ProQinase–Germany), hPI3Kβ (PIK3CB wt/PIK3R1, #1168‐1165‐1 ProQinase, Germany), hPI3Kγ (PIK3CG, #1163‐0000‐1 ProQinase, Germany), hPI3Kδ (PIK3CD/PIK3R1, #1162–1165‐1 ProQinase, Germany), hPI3K‐C2α (PIK3C2A, #14‐906 Merck Millipore_Merck KGaA, Germany), hPI3K‐C2β (PIK3C2B, #14‐907 Merck Millipore_Merck KGaA, Germany), hPI3K‐c2γ (PIK3C2G, #1207‐0000‐1 ProQinase, Germany), and hVps34 (PIK3C3, #1160‐0000‐1 ProQinase, Germany), were incubated in kinase buffer {12.5 μL; 20 mM Tris‐HCl pH 7.5, 10 mM MgCl2, 10 μM ATP, 0.05 mg mL^−1 BSA, 0.5 mM EDTA, 5 mM HEPES pH 7.5, for PI3Kα,PI3Kβ, PI3Kγ, PI3Kδ, PI3KC‐2α, and PI3KC‐2γ; 15 mM MnCl2, 5 mM EGTA, 100 μM ATP, 50 mM HEPES pH 7.5, 100 mM NaCl, and 0.03 % CHAPS for PI3K‐C2β and VPS34 {BSA=bovine serum albumin; EDTA=ethylenediaminetetraacetic acid; HEPES=4‐(2‐hydroxyethyl)‐1‐piperazineethanesulfonic acid; EGTA=ethylene glycol‐bis(2‐aminoethylether)‐N,N,N′,N′‐tetraacetic acid; CHAPS=3‐[(3‐cholamidopropyl)dimethylammonio]‐1‐propanesulfonate}. In the reaction, the ATP concentration used for different PI3Ks was defined on the basis of the Michaelis–Menten kinetics of each enzyme, provided by the supplier. Reaction was performed in presence of 0.5 mg mL^−1 lipid micelles (1:1 phosphatidylinositol/phosphatidylserine) and in the absence (DMSO alone) or presence of increasing concentrations of each compound (from 0.1 nM to 30 μM). The mixture was kept at room temperature (RT) for 30 min for PI3Kα, PI3Kβ, PI3Kγ, PI3Kδ, PI3KC‐2α, and PI3KC‐2γ and for 1 h for PI3K‐C2β and PI3K‐C3. The amount of ADP produced in the reaction was measured by using the ADP‐Glo Kinase Assay kit from Promega (#V9102) and a luminescence reader (Glomax multi detection system, Promega, model number 9301‐010).
(§2) The residual PI3K lipid kinase activity in the presence of each molecule at different concentrations was related to the control, intended as the recombinant protein in the presence of DMSO alone and was expressed as a percentage. To derive the IC50 value, all data (% of lipid kinase activity) were plotted on a dose–response curve (Graph Pad software), and the IC50 was calculated by using nonlinear regression fit (equation [log agonist] versus response).

[2] = target: T2, hPI3Kβ (PIK3CB wt/PIK3R1) (Homo sapiens, UniProt P42338); experiment: lipid kinase assay (ADP-Glo), PI3Kβ; details: for inhibition at 1 µM: determined at 1 μM, at least triplicate, read-out: Inhibitory activity, PI3K isoform β
T2 construct: purchased ProQinase, Germany 1168‐1165‐1
Protocol: as §1, §2

hPI3Kγ (PIK3CG) = target: T3, hPI3Kγ (PIK3CG) (Homo sapiens, UniProt P48736); experiment: lipid kinase assay (ADP-Glo), PI3Kγ; details: for inhibition at 1 µM: determined at 1 μM, at least triplicate, read-out: Inhibitory activity, PI3K isoform γ
T3 construct: purchased ProQinase, Germany 1163‐0000‐1
Protocol: as §1, §2

hPI3Kδ (PIK3CD/PIK3R1) = target: T4, hPI3Kδ (PIK3CD/PIK3R1) (Homo sapiens, UniProt O00329); experiment: lipid kinase assay (ADP-Glo), PI3Kδ; details: for inhibition at 1 µM: determined at 1 μM, at least triplicate, read-out: Inhibitory activity, PI3K isoform δ
T4 construct: purchased ProQinase, Germany 1162–1165‐1
Protocol: as §1, §2

[3] = Table 3, analogues of 37, read-out: IC50 against PI3Kα
[4] = Table 2, mean of at least three determinations, 95 % confidence intervals

T4 sequence (O00329 whole entry, canonical isoform): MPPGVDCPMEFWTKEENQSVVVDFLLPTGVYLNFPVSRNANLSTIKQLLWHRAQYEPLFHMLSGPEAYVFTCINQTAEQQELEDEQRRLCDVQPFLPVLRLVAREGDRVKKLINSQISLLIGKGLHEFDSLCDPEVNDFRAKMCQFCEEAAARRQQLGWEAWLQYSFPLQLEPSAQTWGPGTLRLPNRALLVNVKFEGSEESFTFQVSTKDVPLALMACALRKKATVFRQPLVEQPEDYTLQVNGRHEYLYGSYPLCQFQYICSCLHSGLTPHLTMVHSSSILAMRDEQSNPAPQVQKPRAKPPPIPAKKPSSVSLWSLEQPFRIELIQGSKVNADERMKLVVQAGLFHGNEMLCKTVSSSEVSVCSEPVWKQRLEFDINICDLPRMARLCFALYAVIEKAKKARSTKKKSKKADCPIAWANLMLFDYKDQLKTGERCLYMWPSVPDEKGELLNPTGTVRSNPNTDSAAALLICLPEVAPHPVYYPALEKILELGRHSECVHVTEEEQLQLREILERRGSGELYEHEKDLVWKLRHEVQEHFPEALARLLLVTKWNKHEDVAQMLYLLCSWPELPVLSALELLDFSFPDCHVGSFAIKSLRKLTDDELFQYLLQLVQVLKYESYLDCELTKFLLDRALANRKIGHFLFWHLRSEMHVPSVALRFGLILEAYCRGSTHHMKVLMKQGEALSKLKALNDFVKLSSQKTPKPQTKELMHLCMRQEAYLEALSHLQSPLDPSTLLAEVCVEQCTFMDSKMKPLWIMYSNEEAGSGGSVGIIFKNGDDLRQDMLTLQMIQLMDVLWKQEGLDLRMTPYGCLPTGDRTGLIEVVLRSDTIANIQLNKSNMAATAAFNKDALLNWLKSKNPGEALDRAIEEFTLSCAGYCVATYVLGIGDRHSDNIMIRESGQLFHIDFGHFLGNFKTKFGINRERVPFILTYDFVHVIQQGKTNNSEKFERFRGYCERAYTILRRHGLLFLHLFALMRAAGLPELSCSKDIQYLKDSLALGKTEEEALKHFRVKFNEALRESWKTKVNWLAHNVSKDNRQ
T4 sequence (P27986 whole entry partner, canonical isoform): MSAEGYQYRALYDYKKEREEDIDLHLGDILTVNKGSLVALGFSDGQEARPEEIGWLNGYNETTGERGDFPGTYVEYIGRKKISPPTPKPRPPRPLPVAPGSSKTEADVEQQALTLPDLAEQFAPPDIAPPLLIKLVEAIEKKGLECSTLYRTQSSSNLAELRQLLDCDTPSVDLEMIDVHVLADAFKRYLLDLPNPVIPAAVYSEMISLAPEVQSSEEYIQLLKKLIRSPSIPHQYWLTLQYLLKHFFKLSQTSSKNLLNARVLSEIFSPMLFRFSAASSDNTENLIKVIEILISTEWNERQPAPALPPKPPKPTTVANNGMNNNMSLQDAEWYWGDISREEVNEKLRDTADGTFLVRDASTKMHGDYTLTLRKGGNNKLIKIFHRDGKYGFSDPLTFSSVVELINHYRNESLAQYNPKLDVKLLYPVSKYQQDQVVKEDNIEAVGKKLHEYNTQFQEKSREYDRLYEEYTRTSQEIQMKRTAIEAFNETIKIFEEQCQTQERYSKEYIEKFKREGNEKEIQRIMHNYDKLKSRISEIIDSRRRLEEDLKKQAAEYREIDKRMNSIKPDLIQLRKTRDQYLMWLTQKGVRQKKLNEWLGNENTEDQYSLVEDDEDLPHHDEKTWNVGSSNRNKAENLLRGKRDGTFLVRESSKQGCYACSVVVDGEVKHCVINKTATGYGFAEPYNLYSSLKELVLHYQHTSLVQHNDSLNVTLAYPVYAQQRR
T2 sequence (P42338 whole entry, canonical isoform): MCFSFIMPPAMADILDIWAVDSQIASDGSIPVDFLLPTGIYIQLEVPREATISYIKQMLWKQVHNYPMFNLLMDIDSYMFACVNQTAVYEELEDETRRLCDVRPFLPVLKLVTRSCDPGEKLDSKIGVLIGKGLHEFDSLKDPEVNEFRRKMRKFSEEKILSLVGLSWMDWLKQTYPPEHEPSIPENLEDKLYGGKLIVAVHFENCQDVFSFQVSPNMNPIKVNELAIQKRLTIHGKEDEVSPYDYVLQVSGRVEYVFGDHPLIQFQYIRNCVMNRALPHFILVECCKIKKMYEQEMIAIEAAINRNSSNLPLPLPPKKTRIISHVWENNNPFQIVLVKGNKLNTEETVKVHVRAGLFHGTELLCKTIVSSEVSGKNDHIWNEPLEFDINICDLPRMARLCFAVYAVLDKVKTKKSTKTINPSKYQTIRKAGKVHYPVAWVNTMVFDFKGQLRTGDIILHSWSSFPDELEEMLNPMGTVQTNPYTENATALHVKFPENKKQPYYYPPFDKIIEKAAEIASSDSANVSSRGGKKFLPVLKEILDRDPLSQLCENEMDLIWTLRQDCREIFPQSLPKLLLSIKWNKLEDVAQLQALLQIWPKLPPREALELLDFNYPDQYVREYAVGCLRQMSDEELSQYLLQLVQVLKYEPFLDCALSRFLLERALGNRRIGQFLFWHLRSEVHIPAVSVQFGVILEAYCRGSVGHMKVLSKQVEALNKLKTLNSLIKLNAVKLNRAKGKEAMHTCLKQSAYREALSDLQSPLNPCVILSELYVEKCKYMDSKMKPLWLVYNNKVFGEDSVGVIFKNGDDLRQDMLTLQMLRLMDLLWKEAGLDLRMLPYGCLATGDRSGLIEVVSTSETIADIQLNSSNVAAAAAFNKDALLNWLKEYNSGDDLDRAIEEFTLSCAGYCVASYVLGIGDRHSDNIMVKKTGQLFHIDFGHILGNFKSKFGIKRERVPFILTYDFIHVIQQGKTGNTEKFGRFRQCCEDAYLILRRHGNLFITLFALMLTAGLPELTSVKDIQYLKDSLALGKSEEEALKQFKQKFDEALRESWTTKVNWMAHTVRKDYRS
T2 sequence (P27986 whole entry partner, canonical isoform): as the sequence (P27986 whole entry partner, canonical isoform) above
T3 sequence (P48736 whole entry, canonical isoform): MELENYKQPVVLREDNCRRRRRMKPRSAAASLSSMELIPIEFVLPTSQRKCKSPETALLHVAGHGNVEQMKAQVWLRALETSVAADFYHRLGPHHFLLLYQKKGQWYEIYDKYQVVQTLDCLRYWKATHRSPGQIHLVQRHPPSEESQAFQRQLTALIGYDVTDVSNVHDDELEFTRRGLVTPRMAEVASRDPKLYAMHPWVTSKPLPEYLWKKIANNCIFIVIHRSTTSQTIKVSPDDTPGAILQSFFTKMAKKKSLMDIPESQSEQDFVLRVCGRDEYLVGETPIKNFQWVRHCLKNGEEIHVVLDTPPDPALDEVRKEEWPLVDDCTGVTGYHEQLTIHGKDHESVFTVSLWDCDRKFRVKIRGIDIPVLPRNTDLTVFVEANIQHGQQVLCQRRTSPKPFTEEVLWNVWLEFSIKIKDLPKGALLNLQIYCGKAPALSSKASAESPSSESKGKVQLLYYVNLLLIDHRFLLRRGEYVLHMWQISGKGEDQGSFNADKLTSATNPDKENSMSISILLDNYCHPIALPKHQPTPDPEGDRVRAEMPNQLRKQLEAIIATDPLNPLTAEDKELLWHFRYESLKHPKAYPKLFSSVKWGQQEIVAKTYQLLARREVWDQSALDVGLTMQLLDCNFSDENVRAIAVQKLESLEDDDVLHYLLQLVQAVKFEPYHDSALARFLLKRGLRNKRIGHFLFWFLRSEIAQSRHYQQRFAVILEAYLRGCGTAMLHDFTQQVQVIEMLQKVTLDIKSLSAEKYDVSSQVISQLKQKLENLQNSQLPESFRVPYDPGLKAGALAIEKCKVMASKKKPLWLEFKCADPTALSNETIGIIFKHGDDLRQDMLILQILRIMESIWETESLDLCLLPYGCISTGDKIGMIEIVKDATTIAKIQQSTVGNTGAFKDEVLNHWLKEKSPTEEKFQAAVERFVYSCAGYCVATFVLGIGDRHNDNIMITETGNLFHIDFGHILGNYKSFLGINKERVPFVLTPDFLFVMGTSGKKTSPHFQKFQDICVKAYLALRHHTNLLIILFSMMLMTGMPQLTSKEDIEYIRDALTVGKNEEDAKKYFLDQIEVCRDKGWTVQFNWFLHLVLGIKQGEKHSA
T1 sequence (P42336 whole entry, canonical isoform): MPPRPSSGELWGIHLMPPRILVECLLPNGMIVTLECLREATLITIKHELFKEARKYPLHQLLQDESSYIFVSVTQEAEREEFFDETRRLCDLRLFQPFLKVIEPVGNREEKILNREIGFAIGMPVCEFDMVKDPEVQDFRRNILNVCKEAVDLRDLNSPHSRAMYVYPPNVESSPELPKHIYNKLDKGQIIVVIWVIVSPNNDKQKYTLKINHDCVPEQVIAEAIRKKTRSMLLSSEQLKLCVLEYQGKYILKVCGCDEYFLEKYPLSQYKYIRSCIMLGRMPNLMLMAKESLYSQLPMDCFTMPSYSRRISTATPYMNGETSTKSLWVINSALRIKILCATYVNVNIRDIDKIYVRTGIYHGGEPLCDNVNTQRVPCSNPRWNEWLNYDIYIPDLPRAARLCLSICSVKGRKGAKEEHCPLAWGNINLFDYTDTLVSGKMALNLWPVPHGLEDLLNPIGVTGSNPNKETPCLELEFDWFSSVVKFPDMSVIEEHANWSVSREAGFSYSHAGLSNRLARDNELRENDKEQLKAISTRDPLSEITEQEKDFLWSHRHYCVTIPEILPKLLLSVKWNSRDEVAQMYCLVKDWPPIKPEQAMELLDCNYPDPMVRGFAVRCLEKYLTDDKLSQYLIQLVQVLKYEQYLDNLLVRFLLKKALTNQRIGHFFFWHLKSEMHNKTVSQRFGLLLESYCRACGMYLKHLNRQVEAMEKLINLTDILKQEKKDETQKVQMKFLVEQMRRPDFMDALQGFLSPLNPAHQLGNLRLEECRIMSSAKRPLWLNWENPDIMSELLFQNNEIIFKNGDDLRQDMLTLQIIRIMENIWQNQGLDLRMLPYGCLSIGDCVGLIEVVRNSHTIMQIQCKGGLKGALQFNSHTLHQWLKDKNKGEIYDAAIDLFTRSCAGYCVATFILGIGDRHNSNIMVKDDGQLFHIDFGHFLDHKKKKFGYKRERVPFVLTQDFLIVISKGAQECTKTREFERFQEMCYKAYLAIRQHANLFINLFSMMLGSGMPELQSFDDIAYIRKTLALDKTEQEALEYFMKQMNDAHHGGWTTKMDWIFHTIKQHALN
T1 sequence (P27986 whole entry partner, canonical isoform): as the sequence (P27986 whole entry partner, canonical isoform) above

Structure (SMILES) | inhibition at 1 µM [1] [%] | inhibition at 1 µM [2] [%] | inhibition at 1 µM (hPI3Kγ (PIK3CG)) [%] | inhibition at 1 µM (hPI3Kδ (PIK3CD/PIK3R1)) [%] | IC50 [1, 3] [nM] | other results
Nc1ccc(-n2cc(-c3cccc4c(=O)cc(N5CCOCC5)[nH]c34)nn2)cc1 [Compound 32, 8‐[1‐(4‐Aminophenyl)‐1H‐1,2,3‐triazol‐4‐yl]‐2‐morpholinoquinolin‐4(1H)‐one] | < 50 | < 50 | < 50 | < 50 | – | –
O=C(O)CCCCn1cc(-c2cccc3c(=O)cc(N4CCOCC4)[nH]c23)nn1 [Compound 56, 5‐[4‐(2‐Morpholino‐4‐oxo‐1,4‐dihydroquinolin‐8‐yl)‐1H‐1,2,3‐triazol‐1‐yl]pentanoic acid] | – | – | – | – | > 1000 | –
O=C(O)c1ccc(-n2cc(-c3cccc4c(=O)cc(N5CCOCC5)[nH]c34)nn2)cc1 [Compound 45, 4‐[4‐(2‐Morpholino‐4‐oxo‐1,4‐dihydroquinolin‐8‐yl)‐1H‐1,2,3‐triazol‐1‐yl]benzoic acid] | > 50 | > 50 | > 50 | > 50 | – | IC50 ([1]; Table 2, read-out: IC50 PI3Kα): 320 ± 200 nM; IC50 [2, 4]: 300 ± 200 nM; IC50 (hPI3Kγ (PIK3CG); [4]): 300 ± 200 nM; IC50 (hPI3Kδ (PIK3CD/PIK3R1); [4]): 170 ± 100 nM
O=c1cc(N2CCOCC2)[nH]c2c(-c3cn(-c4cccc(O)c4)nn3)cccc12 [Compound 26, 8‐[1‐(3‐Hydroxyphenyl)‐1H‐1,2,3‐triazol‐4‐yl]‐2‐morpholinoquinolin‐4(1H)‐one] | < 50 | < 50 | < 50 | < 50 | – | –
COc1ccc(-n2cc(-c3cccc4c(=O)cc(N5CCOCC5)[nH]c34)nn2)cc1 [Compound 44, 8‐[1‐(4‐Methoxyphenyl)‐1H‐1,2,3‐triazol‐4‐yl]‐2‐morpholinoquinolin‐4(1H)‐one] | < 50 | < 50 | < 50 | < 50 | – | –
O=C(O)CCCn1cc(-c2cccc3c(=O)cc(N4CCOCC4)[nH]c23)nn1 [Compound 55, 4‐[4‐(2‐Morpholino‐4‐oxo‐1,4‐dihydroquinolin‐8‐yl)‐1H‐1,2,3‐triazol‐1‐yl]butanoic acid] | – | – | – | – | > 1000 | –
O=C(O)CCCCCn1cc(-c2cccc3c(=O)cc(N4CCOCC4)[nH]c23)nn1 [Compound 57] | – | – | – | – | > 1000 | –

Now from value to compound, other results behind:

inhibition at 1 µM [1] [%] | inhibition at 1 µM [2] [%] | inhibition at 1 µM (hPI3Kγ (PIK3CG)) [%] | inhibition at 1 µM (hPI3Kδ (PIK3CD/PIK3R1)) [%] | IC50 [1, 3] [nM] | Structure (SMILES) | other results
– | – | – | – | 290 ± 80 | CCN(CC)C(=O)c1cccc(Cn2cc(-c3cccc4c(=O)cc(N5CCOCC5)[nH]c34)nn2)c1 [Compound 62, N,N ‐Diethyl‐3‐{[4‐(2‐morpholino‐4‐oxo‐1,4‐dihydroquinolin‐8‐yl)‐1H‐1,2,3‐triazol‐1‐yl]methyl}benzamide] | –
– | – | – | – | > 1000 | O=c1cc(N2CCOCC2)[nH]c2c(-c3cn(Cc4cccc(-c5nnn[nH]5)c4)nn3)cccc12 [Compound 63, 8‐{1‐[3‐(1H‐Tetrazol‐5‐yl)benzyl]‐1H‐1,2,3‐triazol‐4‐yl}‐2‐morpholinoquinolin‐4(1H)‐one] | –
– | – | – | – | > 1000 | CS(=O)(=O)NC(=O)c1cccc(Cn2cc(-c3cccc4c(=O)cc(N5CCOCC5)[nH]c34)nn2)c1 [Compound 58, N ‐(Methylsulfonyl)‐3‐{[4‐(2‐morpholino‐4‐oxo‐1,4‐dihydroquinolin‐8‐yl)‐1H‐1,2,3‐triazol‐1‐yl]methyl}benzamide] | –
– | – | – | – | 250 ± 80 | O=C(NC1CC1)c1cccc(Cn2cc(-c3cccc4c(=O)cc(N5CCOCC5)[nH]c34)nn2)c1 [Compound 61, N ‐Cyclopropyl‐3‐{[4‐(2‐morpholino‐4‐oxo‐1,4‐dihydroquinolin‐8‐yl)‐1H‐1,2,3‐triazol‐1‐yl]methyl}benzamide] | –
– | – | – | – | 140 ± 90 | O=C(NCc1ccccc1)c1cccc(Cn2cc(-c3cccc4c(=O)cc(N5CCOCC5)[nH]c34)nn2)c1 [Compound 60, N ‐Benzyl‐3‐{[4‐(2‐morpholino‐4‐oxo‐1,4‐dihydroquinolin‐8‐yl)‐1H‐1,2,3‐triazol‐1‐yl]methyl}benzamide] | –
– | – | – | – | 800 ± 740 | NC(=O)c1cccc(Cn2cc(-c3cccc4c(=O)cc(N5CCOCC5)[nH]c34)nn2)c1 [Compound 59, 3‐{[4‐(2‐Morpholino‐4‐oxo‐1,4‐dihydroquinolin‐8‐yl)‐1H‐1,2,3‐triazol‐1‐yl]methyl}benzamide] | –
